Experiments:
[1] = solution has the proper amount of sodium polyphosphate
[2] = atmospheric pressure, 20° C.; cited from earlier work

Compound: [O][Cl+][O-] [Chlorine dioxide]
- stability of ClO2 in solution [1]: remain stable for years
- solubility in water [2]: approximately 70 g/l

From patent US9788549B2, “Broad spectrum disinfectant” (DI[…] LLC, priority 2014, dated 2017)
